Experimental data as given in US20130096099A1, “METHOD OF TREATING BRAIN CANCER” (NIIKI PHARMA INC., priority 2010, published 2013).
Entries after “also recorded” stand apart in the source; their conditions may differ.

Tests used:
glioma cell line U87 [1] = test: Live-cell staining with Calcein AM / image analysis in 3-D HuBiogel tumor beads; type: cell-based; conditions: 3-D HuBiogel tumor beads from U87, Calcein AM, Day 3
Description: (§1) The compound sodium trans-[tetrachlorobis(1H-indazole)ruthenate(III)] was tested in a 3-dimentional tumor model derived from glioma cell line U87. Specifically, cells were trypsinized, washed, counted by trypan blue exclusion. Tumor beads were then prepared by mixing 20,000 cells/10 μl of HuBiogel (4 mg/mL) (See U.S. patent application Ser. No. 10/546,506, which is incorporated herein by reference). The 3-D tumor beads were cultivated for 72 hours in multi-well plates with complete media (10% FBS) in a 37° C. incubator +5% CO2. Mini-tumors were treated with various concentrations of the test compound sodium trans-[tetrachlorobis(1H-indazole)ruthenate(III)] in media (final 0.2-0.3% DMSO) or control (DMSO). Repeated drug treatment was done by removing the culture media and replacing with fresh media with drug compound or DMSO. On Day 3, MTT assay and live-cell staining with Calcein AM were performed (5 beads/assay set).
(§2) Statistical analysis of data sets (Average, T-test, GI-50) was performed using MS-Excel program. […] See e.g., Bowles et al., J. Neurosurg., 73:248-253 (1990).

glioma cell line U87 [2] = test: MTT assay in 3-dimentional tumor model (HuBiogel) derived from glioma cell line U87; type: cell-based
Description: as §1, §2

U87 cell line = conditions: Bowles et al., J. Neurosurg., 73:248-253 (1990); cited from earlier work

SMILES	tumor killing in live-cell staining/image analysis (glioma cell line U87 [1])	tumor proliferation activity / growth inhibition (MTT assay) (glioma cell line U87 [2]; 3-D HuBiogel tumor beads from U87, Day 3, FIG. 1)	GI50 (glioma cell line U87 [2]; 3-D HuBiogel tumor beads from U87, MTT assay on Day 3, read-out: average GI-50 (the drug concentration required for growth inhibition at 50%)) [µM]	resistance of U87 cell line to drug (U87 cell line)
[Cl][Ru-]([Cl])([Cl])[Cl].[Na+].c1ccc2[nH]ncc2c1.c1ccc2[nH]ncc2c1 [sodium trans-[tetrachlorobis(1H-indazole)ruthenate(III)]]	dose-dependent tumor killing effective	dose-dependent growth inhibition; also recorded: significantly inhibited tumor proliferation activity	95	–
O=NN(CCCl)C(=O)NCCCl [BCNU, bis-chloronitrosourea]	–	–	–	relatively resistant
